The results in this text go back to paper PMC4834642, “Orthogonal ring-closing alkyne and olefin metathesis for the synthesis of small GTPase-targeting bicyclic peptides” (Nature Communications, 2016).

Data set [1] can be described thus: On-resin ring-closing alkyne metathesis (RCAM), alpha-methyl-alpha-alkynyl residues at i,i+4, Mo alkylidyne complex 5 (2 mg/mL, 2 x 0.5 mL), Ar bubbling to remove 2-butyne; bicyclic entries (24-29) additionally closed by RCM (Grubbs I). Conditions: the molecule shown is the open-chain precursor, toluene, 40.0 °C, 3.0 h.
The target of a further data set is T1, Rab8a6-176(GppNHp) (Homo sapiens, UniProt P61006).
T1 construct: Expression and purification of Rab8a6-176 was performed analog to full-length Rab8a; made in house
T1 sequence (P61006 6-176): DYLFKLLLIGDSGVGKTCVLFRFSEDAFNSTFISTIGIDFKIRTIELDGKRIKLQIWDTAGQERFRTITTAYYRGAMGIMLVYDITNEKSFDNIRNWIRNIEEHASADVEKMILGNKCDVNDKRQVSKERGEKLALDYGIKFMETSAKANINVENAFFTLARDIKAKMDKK
As to the kind of experiment: Fluorescence polarization (FP) binding assay of fluorescein-labelled peptides. The following applies: for Rel. Kd (Kd [Peptide]/Kd [StRIP3]) / Kd: FP, fluorescein-PEG labelled peptide 66 nM, 4 h room temperature, 25 mM HEPES pH 7.5; for Rel. Kd (Kd [Peptide]/Kd [StRIP3]): Kd values are single point measurements (n = 1); for Kd: average of triplicate measurements, errors 1σ. As for the experimental part: Rab8a6–176(GppNHp) was serially diluted in a buffer containing 25 mM HEPES (pH 7.5), 150 mM NaCl, 1 mM MgCl2, 1 mM TCEP, 0.01% Tween 20 and 1 μM GppNHp, treated with 66 nM fluorescein-labelled peptides and incubated for 4 h at room temperature. Fluorescence polarization values (λex=470 nm, λem=525 nm) were determined at room temperature. Initial studies for alkyne macrocyclized peptides were performed as single measurements. Final affinity measurements of a subset of peptides were performed in triplicates. After correction for changes in fluorescence intensity upon binding, the fluorescence anisotoropy data were converted into fraction bound of the FITC-labelled peptide and fitted to a one-site binding model derived from the law of mass action using Kd as the only fitting parameter (for details, see Supplementary Methods)[63]. Nonlinear regression was performed in Prism 5.0 (Graphpad)[64]. […]
using a PD-10 desalting column Sephadex G-25 DNA Grade (GE Healthcare) with elution buffer consisting of 20 mM HEPES (pH 7.5), 50 mM NaCl, 1 mM TCEP. After removal of Mg2+ the protein was diluted to 80 - 100 µM before addition of ZnCl2 (500 µM) and (NH4)2SO4 (200 mM). After addition of alkaline phosphatase (5 U mg-1 Rab protein) the mixture was incubated for 16 h at 4°C. For nucleotide exchange, the mixture contained a 5-fold excess of GppNHp during alkaline phosphatase incubation. Afterwards, the mixture was desalted using a PD-10 desalting column Sephadex G-25 DNA Grade (GE Healthcare) with elution buffer consisting of 25 mM HEPES (pH 7.5) 150 mM NaCl, 1 mM TCEP, 1 mM MgCl2 and 1 µM GppNHp.
Fluorescence polarization assay for the determination of dissociation […]
Rab8a6-176 was serially diluted in a buffer containing 25 mM HEPES (pH 7.5), 150 mM NaCl, 1 mM MgCl2, 1 mM TCEP, 0.01% tween 20 and 1 µM GppNHp (assay buffer), treated with 66 nM fluorescein-labeled peptides and incubated for 4 h at room temperature. Binding assays were performed in 384-well, small volume, black flat-bottom, non-binding plates (Greiner). Fluorescence polarization values (λex = 470 nm, λem = 525 nm) were determined using a Safire II plate reader (Tecan) at room temperature. Initial studies for alkyne macrocyclized peptides were performed as single measurements. Final affinity measurements of a subset of peptides were performed in triplicates. After correction for changes in fluorescence intensity upon binding, the fluorescence anisotoropy data were converted into fraction bound (Supplementary equation 1) of the FITC- labeled peptide and fitted to a one-site binding model derived from the law of mass action using Kd as the only fitting parameter (Supplementary equation 2).4 In case of incomplete binding due to the limited solubility of Rab proteins, anisotropy top-values were extrapolated and constrained as indicated below. Non-linear regression was performed in Prism 5.0 […]
(Supplementary equation 1)
A: observed anisotropy; Afree: anisotropy of free fluorophore; Abound: anisotoropy of bound fluorophore; Q: change in fluorescence intensity between free and bound state […]
(Supplementary equation 2)
Kd: dissociation constant; LT: total concentration of labeled peptide; cRab: protein concentration Microscale Thermophoresis (MST)
In general terms: Polarisation of emitted light reports the rotation of a fluorescent probe.

Bridge positions count the residues as written; N and C are the ends. Square brackets hold non-standard residues; d marks the D form. Peptide text beside a SMILES is read from it. * marks the point of attachment. FITC = O=C1OC2(c3ccc(O)cc3Oc3cc(O)ccc32)c2ccc(NC(=S)*)cc21; S5 = C=CCCC[C@](C)(N)C(=O)O; AEEA = NCCOCCOCC(=O)O

Compound `CC#CCCCC[C@](C)(NC(=O)[C@H](Cc1ccccc1)NC(=O)[C@H](CCC(=O)NC(c1ccccc1)(c1ccccc1)c1ccccc1)NC(=O)[C@H](CCC(=O)OC(C)(C)C)NC(=O)[C@](C)(CCCC#CC)NC(=O)[C@H](CCC(=O)OC(C)(C)C)NC(=O)[C@H](CC(=O)OC(C)(C)C)NC(=O)[C@H](CC(=O)OC(C)(C)C)NC(=O)OCC1c2ccccc2-c2ccccc21)C(=O)N[C@@H](Cc1ccc(OC(C)(C)C)cc1)C(=O)N[C@@H](Cc1cn(C(c2ccccc2)(c2ccccc2)c2ccccc2)cn1)C(=O)N[C@@H](CC(C)C)C(=O)N[C@@H](CC(C)C)C(=O)N[C@@H](COC(C)(C)C)C(=O)N[C@@H](Cc1ccccc1)C(=O)N[C@@H](CC(=O)NC(c1ccccc1)(c1ccccc1)c1ccccc1)C(=O)N[C@@H](C)C(=O)N[C@H](C(N)=O)C(C)C` had a ring closure, overall yield in data set [1] (22-membered ring) of 12%. Take `CC(C)C[C@H](NC(=O)[C@H](CC(C)C)NC(=O)[C@H](Cc1c[nH]cn1)NC(=O)[C@H](Cc1ccc(O)cc1)NC(=O)[C@]1(C)CCCCC(Br)=C(Br)CCCC[C@](C)(NC(=O)[C@H](CCC(=O)O)NC(=O)[C@H](CC(=O)O)NC(=O)[C@H](CC(=O)O)NC(=O)COCCOCCNC(=S)Nc2ccc3c(c2)C(=O)OC32c3ccc(O)cc3Oc3cc(O)ccc32)C(=O)N[C@@H](CCC(=O)O)C(=O)N[C@@H](CCC(N)=O)C(=O)N[C@@H](Cc2ccccc2)C(=O)N1)C(=O)N[C@@H](CO)C(=O)N[C@@H](Cc1ccccc1)C(=O)N[C@@H](CC(N)=O)C(=O)N[C@@H](C)C(=O)N[C@H](C(N)=O)C(C)C` [peptide 21]: the “Increase in binding affinity compared with StRIP3” value at Rab8a6-176(GppNHp) (FP Kd, Rab8a6-176(GppNHp)) is on record as 2 fold. Moreover, on Rab8a6-176(GppNHp), the “Rel. Kd (Kd [Peptide]/Kd [StRIP3])” value amounted to 0.40 and binding was put at a Kd of 10.7 ± 0.5 µM. Take `CC(C)C[C@H](NC(=O)[C@H](Cc1c[nH]cn1)NC(=O)[C@H](Cc1ccc(O)cc1)NC(=O)[C@]1(C)CCCCC#CCCC[C@](C)(NC(=O)[C@H](CCC(=O)O)NC(=O)[C@H](CC(=O)O)NC(=O)[C@H](CC(=O)O)NC(=O)COCCOCCNC(=S)Nc2ccc3c(c2)C(=O)OC32c3ccc(O)cc3Oc3cc(O)ccc32)C(=O)N[C@@H](CCC(=O)O)C(=O)N[C@@H](CCC(N)=O)C(=O)N[C@@H](Cc2ccccc2)C(=O)N1)C(=O)N[C@@]1(C)CCC/C=C\CCC[C@@](C)(C(=O)N[C@H](C(N)=O)C(C)C)NC(=O)[C@H](CC(N)=O)NC(=O)[C@H](Cc2ccccc2)NC(=O)[C@H](CO)NC1=O` [compound 28]: the “Rel. Kd (Kd [Peptide]/Kd [StRIP3])” value on Rab8a6-176(GppNHp) was found to be 0.42.

In data set [1] (23-membered ring), `CC#CCCCC[C@](C)(NC(=O)[C@H](Cc1ccccc1)NC(=O)[C@H](CCC(=O)NC(c1ccccc1)(c1ccccc1)c1ccccc1)NC(=O)[C@H](CCC(=O)OC(C)(C)C)NC(=O)[C@](C)(CCCCC#CC)NC(=O)[C@H](CCC(=O)OC(C)(C)C)NC(=O)[C@H](CC(=O)OC(C)(C)C)NC(=O)[C@H](CC(=O)OC(C)(C)C)NC(=O)OCC1c2ccccc2-c2ccccc21)C(=O)N[C@@H](Cc1ccc(OC(C)(C)C)cc1)C(=O)N[C@@H](Cc1cn(C(c2ccccc2)(c2ccccc2)c2ccccc2)cn1)C(=O)N[C@@H](CC(C)C)C(=O)N[C@@H](CC(C)C)C(=O)N[C@@H](COC(C)(C)C)C(=O)N[C@@H](Cc1ccccc1)C(=O)N[C@@H](CC(=O)NC(c1ccccc1)(c1ccccc1)c1ccccc1)C(=O)N[C@@H](C)C(=O)N[C@H](C(N)=O)C(C)C` registered a ring closure, overall yield of 16%. As for `CC(C)C[C@H](NC(=O)[C@H](CC(C)C)NC(=O)[C@H](Cc1c[nH]cn1)NC(=O)[C@H](Cc1ccc(O)cc1)NC(=O)[C@]1(C)CCC/C=C\CCC[C@](C)(NC(=O)[C@H](CCC(=O)O)NC(=O)[C@H](CC(=O)O)NC(=O)[C@H](CC(=O)O)NC(=O)COCCOCCNC(=S)Nc2ccc3c(c2)C(=O)OC32c3ccc(O)cc3Oc3cc(O)ccc32)C(=O)N[C@@H](CCC(=O)O)C(=O)N[C@@H](CCC(N)=O)C(=O)N[C@@H](Cc2ccccc2)C(=O)N1)C(=O)N[C@@H](CO)C(=O)N[C@@H](Cc1ccccc1)C(=O)N[C@@H](CC(N)=O)C(=O)N[C@@H](C)C(=O)N[C@H](C(N)=O)C(C)C` [StRIP3] ({FITC-AEEA}-DDE[S5]EQF[S5]YHLLSFNAV-NH2; staple (Z) 4-8; C-terminus assumed), on Rab8a6-176(GppNHp), the “Rel. Kd (Kd [Peptide]/Kd [StRIP3])” value was determined as 1.00 and binding was put at a Kd of 20.7 ± 0.7 µM. The compound `CC#CCCCC[C@](C)(NC(=O)[C@H](CCC(=O)OC(C)(C)C)NC(=O)[C@H](CC(=O)OC(C)(C)C)NC(=O)[C@H](CC(=O)OC(C)(C)C)NC(=O)OCC1c2ccccc2-c2ccccc21)C(=O)N[C@@H](CCC(=O)OC(C)(C)C)C(=O)N[C@@H](CCC(=O)NC(c1ccccc1)(c1ccccc1)c1ccccc1)C(=O)N[C@@H](Cc1ccccc1)C(=O)N[C@@](C)(CCCC#CC)C(=O)N[C@@H](Cc1ccc(OC(C)(C)C)cc1)C(=O)N[C@@H](Cc1cn(C(c2ccccc2)(c2ccccc2)c2ccccc2)cn1)C(=O)N[C@@H](CC(C)C)C(=O)N[C@@H](CC(C)C)C(=O)N[C@@H](COC(C)(C)C)C(=O)N[C@@H](Cc1ccccc1)C(=O)N[C@@H](CC(=O)NC(c1ccccc1)(c1ccccc1)c1ccccc1)C(=O)N[C@@H](C)C(=O)N[C@H](C(N)=O)C(C)C` yielded a ring closure, overall yield in data set [1] (22-membered ring) of 23%. The compound `CC#CCCC[C@](C)(NC(=O)[C@H](Cc1ccccc1)NC(=O)[C@H](CCC(=O)NC(c1ccccc1)(c1ccccc1)c1ccccc1)NC(=O)[C@H](CCC(=O)OC(C)(C)C)NC(=O)[C@](C)(CCCC#CC)NC(=O)[C@H](CCC(=O)OC(C)(C)C)NC(=O)[C@H](CC(=O)OC(C)(C)C)NC(=O)[C@H](CC(=O)OC(C)(C)C)NC(=O)OCC1c2ccccc2-c2ccccc21)C(=O)N[C@@H](Cc1ccc(OC(C)(C)C)cc1)C(=O)N[C@@H](Cc1cn(C(c2ccccc2)(c2ccccc2)c2ccccc2)cn1)C(=O)N[C@@H](CC(C)C)C(=O)N[C@@H](CC(C)C)C(=O)N[C@@H](COC(C)(C)C)C(=O)N[C@@H](Cc1ccccc1)C(=O)N[C@@H](CC(=O)NC(c1ccccc1)(c1ccccc1)c1ccccc1)C(=O)N[C@@H](C)C(=O)N[C@H](C(N)=O)C(C)C` yielded a ring closure, overall yield in data set [1] (21-membered ring) of 0%.
